Laboratory results taken from PubChem BioAssay AID256 (DTP/NCI, 2004).
Values joined by “and” are separate entries in the source; they are usually repeats but may differ in a detail not shown here. Equal entries are not always repeated. Inconclusive results and toxic doses are left out.

Test system: CD2F1 mice, L1210 leukemia ip, survival T/C
Experiment: NCI In Vivo Anticancer Drug Screen. Data for tumor model L1210 Leukemia (intraperitoneal) in CD2F1 (CDF1) mice
Conditions: higher = longer survival
Protocol: The antitumor activity of compounds was measured in mice bearing transplantable tumors. Survival or tumor size were measured and the results are expressed as the measurement made in the treated group (T) divided by the measurement made in the vehicle treated control group (C). The tumor model used in this assay is L1210 Leukemia (intraperitoneal) in CD2F1 (CDF1) mice

[1] = endpoint: mean survival time, dose: 100.0 mg/kg/injection, schedule: Q04DX003 (ip), vehicle: saline with Tween-80
[2] = endpoint: mean survival time, dose: 200.0 mg/kg/injection, schedule: Q04DX003 (ip), vehicle: saline with Tween-80
[3] = endpoint: mean survival time, dose: 400.0 mg/kg/injection, schedule: Q04DX003 (ip), vehicle: saline with Tween-80
[4] = endpoint: mean survival time, dose: 50.0 mg/kg/injection, schedule: Q01DX001 (ip), vehicle: saline with Tween-80
[5] = endpoint: mean survival time, dose: 100.0 mg/kg/injection, schedule: Q01DX001 (ip), vehicle: saline with Tween-80
[6] = endpoint: mean survival time, dose: 100.0 mg/kg/injection, schedule: Q04DX003 (ip), vehicle: saline
[7] = endpoint: mean survival time, dose: 200.0 mg/kg/injection, schedule: Q04DX003 (ip), vehicle: saline
[8] = endpoint: mean survival time, dose: 400.0 mg/kg/injection, schedule: Q04DX003 (ip), vehicle: saline
[9] = endpoint: mean survival time, dose: 100.0 mg/kg/injection, schedule: Q01DX009 (ip), vehicle: saline with Tween-80
[10] = endpoint: mean survival time, dose: 200.0 mg/kg/injection, schedule: Q01DX009 (ip), vehicle: saline with Tween-80
[11] = endpoint: mean survival time, dose: 400.0 mg/kg/injection, schedule: Q01DX009 (ip), vehicle: saline with Tween-80
[12] = endpoint: mean survival time, dose: 200.0 mg/kg/injection, schedule: Q01DX001 (ip), vehicle: saline with Tween-80
[13] = endpoint: mean survival time, dose: 400.0 mg/kg/injection, schedule: Q01DX001 (ip), vehicle: saline with Tween-80

In the case of `CCN(CC)C(=O)c1cccc(COc2ccc(N3C(N)=NC(N)=NC3(C)C)cc2Cl)c1`, the T/C (endpoint: mean survival time, dose: 0.2 mg/kg/injection, schedule: Q01DX009 (ip), vehicle: saline) is reported as 98 % of control, the T/C (endpoint: mean survival time, dose: 0.4 mg/kg/injection, schedule: Q01DX009 (ip), vehicle: saline) is reported as 98 % of control and the T/C (endpoint: mean survival time, dose: 0.8 mg/kg/injection, schedule: Q01DX009 (ip), vehicle: saline) is reported as 100 % of control. For the same compound, the T/C (endpoint: mean survival time, dose: 1.56 mg/kg/injection, schedule: Q01DX009 (ip), vehicle: saline) was 96 % of control, the T/C (endpoint: mean survival time, dose: 3.13 mg/kg/injection, schedule: Q01DX009 (ip), vehicle: saline) was 100 % of control and the T/C (endpoint: mean survival time, dose: 6.25 mg/kg/injection, schedule: Q01DX009 (ip), vehicle: saline) was 96 % of control. For the same compound, the T/C (endpoint: mean survival time, dose: 12.5 mg/kg/injection, schedule: Q01DX009 (ip), vehicle: saline) was 100 % of control.

`Cc1ccc2nc(NC(=O)N(CCCl)N=O)sc2c1` was tested, and the T/C (endpoint: mean survival time, dose: 118.0 mg/kg/injection, schedule: Q01DX009 (ip), vehicle: other) was 197 % of control, the T/C (endpoint: mean survival time, dose: 177.0 mg/kg/injection, schedule: Q01DX001 (ip), vehicle: other) was 162 % of control and the T/C (endpoint: mean survival time, dose: 177.0 mg/kg/injection, schedule: Q01DX009 (ip), vehicle: other) was 96 % of control. The T/C (endpoint: mean survival time, dose: 266.0 mg/kg/injection, schedule: Q01DX001 (ip), vehicle: other) was 154 % of control, the T/C (endpoint: mean survival time, dose: 266.0 mg/kg/injection, schedule: Q01DX009 (ip), vehicle: other) was 111 % of control and the T/C (endpoint: mean survival time, dose: 400.0 mg/kg/injection, schedule: Q01DX001 (ip), vehicle: other) was 156 % of control. The T/C (endpoint: mean survival time, dose: 400.0 mg/kg/injection, schedule: Q01DX009 (ip), vehicle: other) was 88 % of control and the T/C (endpoint: mean survival time, dose: 600.0 mg/kg/injection, schedule: Q01DX001 (ip), vehicle: other) was 234 % of control.

In the case of `C=C(c1ccccc1)c1ccc(N(C)C)cc1`, the T/C [1] is reported as 100 % of control, the T/C [2] is reported as 91 % of control and the T/C [3] is reported as 95 % of control.

For `C#CC(OC(=O)NC(CCSC)C(=O)OC)(c1ccccc1)c1ccccc1` (stereo not drawn), the T/C (endpoint: mean survival time, dose: 25.0 mg/kg/injection, schedule: Q01DX001 (ip), vehicle: saline with Tween-80) was 102 % of control, the T/C [4] was 94 % of control and the T/C [5] was 102 % of control.

In the case of `CCNC(C)(C)C(SSSC(c1ccc(Cl)cc1)C(C)(C)NCC)c1ccc(Cl)cc1` (stereo not drawn), the T/C [6] is reported as 109 % of control and the T/C [7] is reported as 86 % of control.

With `CCOC(=O)Nc1cc(N(C)C)c(N)c(N)n1` the T/C (endpoint: mean survival time, dose: 100.0 mg/kg/injection, schedule: Q01DX001 (ip), vehicle: carboxymethylcellulose (CMC)) was 100 % of control and the T/C (endpoint: mean survival time, dose: 200.0 mg/kg/injection, schedule: Q01DX001 (ip), vehicle: carboxymethylcellulose (CMC)) was 100 % of control.

With `CC(=O)OCC1OC(n2ccc(=O)[nH]c2=O)CC1N=[N+]=[N-]` (stereo not drawn) the T/C (endpoint: median survival time, dose: 12.5 mg/kg/injection, schedule: Q01DX005 (ip), vehicle: saline with Tween-80) was 104 % of control, the T/C (endpoint: median survival time, dose: 25.0 mg/kg/injection, schedule: Q01DX005 (ip), vehicle: saline with Tween-80) was 107 % of control and the T/C (endpoint: median survival time, dose: 50.0 mg/kg/injection, schedule: Q01DX005 (ip), vehicle: saline with Tween-80) was 104 % of control. The T/C (endpoint: median survival time, dose: 100.0 mg/kg/injection, schedule: Q01DX005 (ip), vehicle: saline with Tween-80) was 101 % of control and the T/C (endpoint: median survival time, dose: 200.0 mg/kg/injection, schedule: Q01DX005 (ip), vehicle: saline with Tween-80) was 106 % of control.

For `CCCN(CCC)S(=O)(=O)c1ccc(NC(=O)OC2CC(C)CCC2C(C)C)cc1` (stereo not drawn), the T/C (endpoint: mean survival time, dose: 100.0 mg/kg/injection, schedule: Q01DX001 (ip), vehicle: saline) was 105 % of control, the T/C (endpoint: mean survival time, dose: 200.0 mg/kg/injection, schedule: Q01DX001 (ip), vehicle: saline) was 100 % of control and the T/C (endpoint: mean survival time, dose: 400.0 mg/kg/injection, schedule: Q01DX001 (ip), vehicle: saline) was 95 % of control.

In the case of `COc1ccc(-c2nc(N)nc3c2CN(CCC(=O)O)C3=O)cc1`, the T/C [6] is reported as 102 % of control, the T/C [7] is reported as 100 % of control and the T/C [8] is reported as 102 % of control.

In the case of `NC(CSS(=O)(=O)CC(N)C(=O)O)C(=O)O` (stereo not drawn), the T/C [6] is reported as 103 % of control, the T/C [7] is reported as 109 % of control and the T/C [8] is reported as 103 % of control.

With `O=C(O)C(=O)O.O=C(O)C(=O)O.O=C(O)C(=O)O.[Co]` the T/C (endpoint: mean survival time, dose: 50.0 mg/kg/injection, schedule: Q04DX002 (ip), vehicle: saline) was 93 % of control.

`CCOC(=O)C(C(C)=O)C(=O)c1ccc([N+](=O)[O-])cc1` (stereo not drawn) was tested, and the T/C [9] was 102 % of control, the T/C [1] was 100 % of control and the T/C [10] was 101 % of control. The T/C [2] was 102 % of control, the T/C [11] was 98 % of control and the T/C [3] was 100 % of control.

With `Nc1cccc2sccc12` the T/C (endpoint: mean survival time, dose: 100.0 mg/kg/injection, schedule: Q04DX003 (ip), vehicle: other) was 106 % of control, the T/C (endpoint: mean survival time, dose: 200.0 mg/kg/injection, schedule: Q04DX003 (ip), vehicle: other) was 113 % of control and the T/C (endpoint: mean survival time, dose: 400.0 mg/kg/injection, schedule: Q04DX003 (ip), vehicle: other) was 101 % of control.

For `CCCCCCNC(=O)Nc1ccc(Cl)c(Cl)c1`, the T/C [2] was 92 % of control and the T/C [3] was 93 % of control.

With `NC(=S)c1cc(C(N)=S)[nH]n1` the T/C (endpoint: mean survival time, dose: 6.25 mg/kg/injection, schedule: Q01DX005 (ip), vehicle: other) was 101 % of control, the T/C (endpoint: mean survival time, dose: 12.5 mg/kg/injection, schedule: Q01DX005 (ip), vehicle: other) was 97 % of control and the T/C (endpoint: mean survival time, dose: 25.0 mg/kg/injection, schedule: Q01DX005 (ip), vehicle: other) was 93 % of control. The T/C (endpoint: mean survival time, dose: 50.0 mg/kg/injection, schedule: Q01DX005 (ip), vehicle: other) was 95 % of control.

For `O=C1NC(=NC2CCCCC2)C2(CCNCC2)N1c1ccccc1`, the T/C [4] was 102 % of control, the T/C [5] was 106 % of control and the T/C [12] was 104 % of control.

With `O=C1C=C[C@H](O)[C@@]2(CO)O[C@@H]12` the T/C (endpoint: median survival time, dose: 0.31 mg/kg/injection, schedule: Q01DX009 (ip), vehicle: saline with Tween-80) was 102 % of control, the T/C (endpoint: median survival time, dose: 0.62 mg/kg/injection, schedule: Q01DX009 (ip), vehicle: saline with Tween-80) was 101 % of control and the T/C (endpoint: median survival time, dose: 1.25 mg/kg/injection, schedule: Q01DX009 (ip), vehicle: saline with Tween-80) was 118 % of control and 110 % of control. The T/C (endpoint: median survival time, dose: 2.5 mg/kg/injection, schedule: Q01DX009 (ip), vehicle: saline with Tween-80) was 121 % of control and 123 % of control, the T/C (endpoint: median survival time, dose: 5.0 mg/kg/injection, schedule: Q01DX009 (ip), vehicle: saline with Tween-80) was 114 % of control and the T/C (endpoint: median survival time, dose: 10.0 mg/kg/injection, schedule: Q01DX009 (ip), vehicle: saline with Tween-80) was 118 % of control.

With `[O-][n+]1onc2ccc(Cl)cc21` the T/C (endpoint: mean survival time, dose: 100.0 mg/kg/injection, schedule: Q04DX003 (ip), vehicle: Klucel (hydroxypropylcellulose) (HPC)) was 102 % of control.

With `COc1ccc2c(Br)cccc2c1` the T/C (endpoint: mean survival time, dose: 100.0 mg/kg/injection, schedule: Q04DX003 (ip), vehicle: acetone) was 102 % of control, the T/C (endpoint: mean survival time, dose: 200.0 mg/kg/injection, schedule: Q04DX003 (ip), vehicle: acetone) was 94 % of control and the T/C (endpoint: mean survival time, dose: 400.0 mg/kg/injection, schedule: Q04DX003 (ip), vehicle: acetone) was 92 % of control.

`COc1ccc(Cl)cc1NC(=O)N/N=C(\C)CC(C)C` was tested, and the T/C [5] was 105 % of control, the T/C [12] was 95 % of control and the T/C [13] was 101 % of control.

`CCNc1ncc2ccccc2c1-c1ccc(NCCN(CCCl)CCCl)cc1` was tested, and the T/C (endpoint: mean survival time, dose: 25.0 mg/kg/injection, schedule: Q04DX003 (ip), vehicle: water) was 98 % of control, the T/C (endpoint: mean survival time, dose: 50.0 mg/kg/injection, schedule: Q04DX003 (ip), vehicle: water) was 100 % of control and the T/C (endpoint: mean survival time, dose: 100.0 mg/kg/injection, schedule: Q04DX003 (ip), vehicle: water) was 90 % of control.

For `O=C(O/N=C(/CN1CCOCC1)c1ccc(Cl)cc1)c1ccccc1`, the T/C [1] was 97 % of control, the T/C [2] was 94 % of control and the T/C [3] was 90 % of control.

In the case of `CC(=O)C(C)(C)C`, the T/C (endpoint: mean survival time, dose: 100.0 mg/kg/injection, schedule: Q04DX002 (ip), vehicle: saline) is reported as 96 % of control, the T/C (endpoint: mean survival time, dose: 200.0 mg/kg/injection, schedule: Q04DX002 (ip), vehicle: saline) is reported as 104 % of control and the T/C (endpoint: mean survival time, dose: 400.0 mg/kg/injection, schedule: Q04DX002 (ip), vehicle: saline) is reported as 104 % of control.

For `Cc1nc(N)[nH]c(=O)c1CCCNc1cccnc1`, the T/C [5] was 96 % of control, the T/C [12] was 92 % of control and the T/C [13] was 92 % of control.

`O=C(NC(CO)C(=O)OCc1ccccc1)OCc1ccccc1` (stereo not drawn) was tested, and the T/C [9] was 107 % of control, the T/C [10] was 96 % of control and the T/C [11] was 91 % of control.

In the case of `OCP(CO)CO.[Cl][Hg][Cl]`, the T/C (endpoint: mean survival time, dose: 12.5 mg/kg/injection, schedule: Q04DX003 (ip), vehicle: saline) is reported as 119 % of control and the T/C (endpoint: mean survival time, dose: 25.0 mg/kg/injection, schedule: Q04DX003 (ip), vehicle: saline) is reported as 116 % of control.
